Experimental data as given in ChEMBL document CHEMBL5096181, “Isoxazole derivatives as anticancer agent: A review on synthetic strategies, mechanism of action and SAR studies” (Eur J Med Chem, 2021).
In brackets after ≈: the same amount, converted by molar mass.

Legend:
[1] = tested on: MCF7; test: Cytotoxicity against human MCF7 cells assessed as cell growth inhibition by MTT assay; format: functional, cell-based
[2] = tested on: Huh-7; test: Cytotoxicity against human Huh-7 cells assessed as cell growth inhibition and measured after 72 hrs by SRB assay; format: functional, cell-based; details: Huh-7, 72 h
[3] = tested on: MCF7; test: Cytotoxicity against human MCF7 cells assessed as cell growth inhibition and measured after 72 hrs by SRB assay; format: functional, cell-based; details: MCF7, 72 h
[4] = tested on: Mahlavu; test: Cytotoxicity against human Mahlavu cells assessed as cell growth inhibition and measured after 72 hrs by SRB assay; format: functional, cell-based
[5] = tested on: DU-145; test: Cytotoxicity against human DU-145 cells assessed as inhibition of cell growth by MTT assay; format: functional, cell-based
[6] = tested on: MCF7; test: Anticancer activity against human MCF7 cells assessed as inhibition of cell proliferation measured after 4 hrs by MTT assay; format: functional, cell-based; details: MCF7, 4 h
[7] = biological target: T1, Tyrosine-protein phosphatase non-receptor type 2 (Homo sapiens, UniProt P17706); test: Inhibition of TCPTP (unknown origin) by SpectraMax 340 microplate reader Analysis
T1 sequence (P17706 whole entry): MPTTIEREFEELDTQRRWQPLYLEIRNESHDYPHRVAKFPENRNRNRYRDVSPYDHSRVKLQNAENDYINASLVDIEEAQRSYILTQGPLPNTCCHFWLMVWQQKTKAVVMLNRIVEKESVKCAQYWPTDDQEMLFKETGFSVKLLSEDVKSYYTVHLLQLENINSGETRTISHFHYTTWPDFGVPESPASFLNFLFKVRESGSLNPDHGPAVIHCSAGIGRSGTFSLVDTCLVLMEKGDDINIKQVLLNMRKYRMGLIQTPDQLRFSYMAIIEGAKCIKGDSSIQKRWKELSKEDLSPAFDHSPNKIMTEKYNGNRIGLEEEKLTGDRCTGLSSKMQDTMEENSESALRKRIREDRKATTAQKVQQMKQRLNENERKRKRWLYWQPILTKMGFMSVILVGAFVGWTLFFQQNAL

[8] = biological target: T2, Tyrosine-protein phosphatase non-receptor type 1 (Homo sapiens, UniProt P18031); test: Inhibition of PTP1B (unknown origin) by SpectraMax 340 microplate reader Analysis
T2 sequence (P18031 whole entry): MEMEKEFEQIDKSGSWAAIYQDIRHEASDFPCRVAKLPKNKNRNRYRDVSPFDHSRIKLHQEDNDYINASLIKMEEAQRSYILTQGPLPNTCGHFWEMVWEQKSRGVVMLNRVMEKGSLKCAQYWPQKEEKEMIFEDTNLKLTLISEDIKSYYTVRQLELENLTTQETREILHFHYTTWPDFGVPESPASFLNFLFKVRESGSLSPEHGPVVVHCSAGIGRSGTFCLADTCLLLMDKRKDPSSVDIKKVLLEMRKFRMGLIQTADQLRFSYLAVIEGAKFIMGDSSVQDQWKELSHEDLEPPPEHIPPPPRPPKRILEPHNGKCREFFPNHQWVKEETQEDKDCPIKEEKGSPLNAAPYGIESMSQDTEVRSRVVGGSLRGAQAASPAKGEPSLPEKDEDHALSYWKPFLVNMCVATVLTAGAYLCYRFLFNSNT

[9] = tested on: MCF7R; test: Cytotoxicity against human MCF7R cells assessed as cell growth inhibition and by MTT assay; format: functional, cell-based
[10] = tested on: CWR22R; test: Antiproliferative activity against human 22Rv1 cells assessed as cell growth inhibition by MTT assay; format: functional, cell-based
[11] = biological target: T3, Aromatase (Homo sapiens, UniProt P11511); test: Inhibition of human recombinant aromatase expressed in baculovirus insect cell using 7-methoxy-trifluoromethyl coumarin (MFC) as substrate preincubated for 10 mins followed by substrate addition and measured for 30 mins by fluorescence based assay
T3 sequence (P11511 whole entry): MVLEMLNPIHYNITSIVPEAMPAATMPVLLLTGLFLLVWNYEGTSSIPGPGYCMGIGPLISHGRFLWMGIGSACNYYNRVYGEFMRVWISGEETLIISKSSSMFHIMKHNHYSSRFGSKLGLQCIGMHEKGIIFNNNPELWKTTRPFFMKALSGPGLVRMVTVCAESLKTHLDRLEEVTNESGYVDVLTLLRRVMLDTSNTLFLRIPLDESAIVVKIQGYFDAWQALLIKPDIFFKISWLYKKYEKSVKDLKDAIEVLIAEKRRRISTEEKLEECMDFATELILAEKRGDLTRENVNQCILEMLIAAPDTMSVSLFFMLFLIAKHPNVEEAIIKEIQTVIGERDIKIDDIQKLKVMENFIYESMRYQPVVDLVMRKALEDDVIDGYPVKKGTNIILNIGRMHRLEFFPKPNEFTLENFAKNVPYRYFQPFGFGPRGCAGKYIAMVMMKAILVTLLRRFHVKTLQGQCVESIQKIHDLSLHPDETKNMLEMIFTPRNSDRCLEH

[12] = tested on: MCF7; test: Induction of apoptosis in human MCF7 cells assessed as early apoptosis cells at 2.0 uM measured after 24 hrs by annexin-V-FITC and PI staining based flow cytometry analysis (reference value: 0.486%); format: functional
[13] = biological target: Tubulin (Sus scrofa, UniProt P02554+P02550); test: Inhibition of pig brain tubulin polymerization by spectrometric method
[14] = tested on: MCF7; test: Induction of apoptosis in human MCF7 cells assessed as late apoptosis cells at 2.0 uM measured after 24 hrs by annexin-V-FITC and PI staining based flow cytometry analysis (reference value: 0.529%); format: functional

With `CC(=O)O[C@H]1C(=O)[C@@]2(C)[C@H]([C@H](OC(=O)c3ccccc3)[C@]3(O)C[C@H](OC(=O)[C@H](O)[C@@H](NC(=O)c4ccccc4)c4ccccc4)C(C)=C1C3(C)C)[C@]1(OC(C)=O)CO[C@@H]1C[C@@H]2O` [PACLITAXEL] the IC50 [1] was 0.015 µg/mL.

Work on `Cc1cc(COc2ccc(-c3cc(N4CCN(Cc5ccc(C(F)(F)F)cc5)CC4)no3)cc2)n(C)n1` yielded an IC50 [2] of 0.3 µM, an IC50 [3] of 1.2 µM and an IC50 [4] of 3.7 µM.

`FC(F)(F)c1ccc(CN2CCN(c3cc(-c4ccc(C(F)(F)F)cc4)on3)CC2)cc1` showed an IC50 [2] of 19.9 µM, an IC50 [3] of 9.5 µM and an IC50 [4] of over 40 µM.

`COc1ccc(C2CC(c3ccno3)=NN2C(N)=O)cc1OC` (configuration not stated) gave an IC50 [5] of 4 µg/mL (≈ 12.6 µM).

Compound `COc1ccc(-c2oncc2-c2ccc(Cl)cc2)c2ccccc12` has an IC50 [6] of 5.26 µM.

For `Nc1nn(Cc2cc(-c3ccc4ccccc4n3)no2)c2nc(-c3cccs3)cc(C(F)(F)F)c12`, the IC50 [1] was 31.6 µM.

Compound `FC(F)(F)c1ccc(CN2CCN(c3cc(-c4ccc(Cl)cc4)on3)CC2)cc1` has an IC50 [2] of 9.6 µM, an IC50 [3] of 14 µM and an IC50 [4] of 26.8 µM.

With `O=C(O)c1cccc(/C=C/c2ccc(Oc3cnoc3-c3cccc(Cl)c3)cc2)c1` the IC50 [7] was 7.58 µM and the IC50 [8] was 5.37 µM.

`Cc1onc(-c2ccc([N+](=O)[O-])cc2)c1C1=NN(C(N)=S)C(c2cccs2)C1` (configuration not stated) was tested, and the IC50 [1] was 2.25 µg/mL.

In the case of `O=C(O)c1cccc(/C=C/c2ccc(Oc3cnoc3-c3ccc(Cl)c(Cl)c3)cc2)c1`, the IC50 [7] is reported as 3.78 µM and the IC50 [8] is reported as 0.91 µM.

`COc1ccc(C2CC(c3ccno3)=NN2C(N)=O)c(F)c1OC` (configuration not stated) gave an IC50 [5] of 2 µg/mL (≈ 5.98 µM).

`O=C(O)c1cccc(/C=C/c2ccc(Oc3cnoc3-c3cccc([N+](=O)[O-])c3)cc2)c1` gave an IC50 [7] of 13.2 µM and an IC50 [8] of 2.05 µM.

Work on `COc1ccc(/C=C/c2cc(/C=C/c3ccc(O)c(OC)c3)no2)cc1O` yielded an IC50 [9] of 12 µM and an IC50 [1] of 13.1 µM.

Work on `COc1ccc(-c2cnoc2-c2ccc(OC)c3ccccc23)cc1` yielded an IC50 [6] of 2.03 µM.

`O=c1[nH]cc(F)c(=O)[nH]1` [FLUOROURACIL] was tested, and the IC50 [10] was 18.3 µM, the IC50 [1] was 1.7 µM and the IC50 [11] was 0.63 µM.

`COc1cccc(-c2cc(Cn3nc(N)c4c(C(F)(F)F)cc(-c5cccs5)nc43)on2)c1` gave an IC50 [1] of 19.4 µM.

Compound `Cc1ccc(-c2cc(N3CCN(Cc4ccc(C(F)(F)F)cc4)CC3)no2)cc1` has an IC50 [2] of 24 µM, an IC50 [3] of 9.4 µM and an IC50 [4] of over 40 µM.

Work on `COc1ccc(-c2oncc2-c2ccccc2Cl)c2ccccc12` yielded an IC50 [6] of 10 µM.

`CCOc1ccc(-c2cnoc2-c2ccc(OC)c3ccccc23)cc1` gave an inhibition at 2 µM [12] of 15.3%, an IC50 [6] of 1.23 µM and an IC50 [13] of 3.4 µM. The inhibition at 2 µM [14] was 6.44%.

`CC(=O)O[C@@]12CO[C@@H]1C[C@H](O)[C@@]1(C)C(=O)[C@H](O)C3=C(C)[C@@H](OC(=O)[C@H](O)[C@@H](NC(=O)OC(C)(C)C)c4ccccc4)C[C@@](O)([C@@H](OC(=O)c4ccccc4)[C@H]21)C3(C)C` [DOCETAXEL ANHYDROUS] gave an IC50 [5] of 5 µg/mL (≈ 6.19 µM).
